Measurements: PubChem BioAssay (NCI)
Several values for one entry are separate records, joined by “and”; a condition that tells them apart may be missing. Equal entries are not always repeated.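 All cell lines were grown in 96-well plates and treated with compound for 48 hours. The concentration for 50% growth inhibition is given as GI50. TGI is the concentration that stops growth completely.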

Key:
Test in all cases: DTP human tumour cell line panel, 48 h
786-0 renal = system: 786-0 renal
A549 NSCLC = system: A549 NSCLC
HCT-116 colon = system: HCT-116 colon
NCI-H460 lung = system: NCI-H460 lung
OVCAR-3 ovarian = system: OVCAR-3 ovarian
OVCAR-8 ovarian = system: OVCAR-8 ovarian
RXF 393 renal = system: RXF 393 renal
SN12C renal = system: SN12C renal
SNB-75 CNS = system: SNB-75 CNS
UACC-62 melanoma = system: UACC-62 melanoma

Structure (SMILES)	GI50 (786-0 renal)	TGI (786-0 renal)	GI50 (A549 NSCLC)	TGI (A549 NSCLC)	GI50 (HCT-116 colon)	TGI (HCT-116 colon)	GI50 (NCI-H460 lung)	TGI (NCI-H460 lung)	GI50 (OVCAR-3 ovarian)	GI50 (OVCAR-8 ovarian)	TGI (OVCAR-8 ovarian)	GI50 (RXF 393 renal)	TGI (RXF 393 renal)	GI50 (SN12C renal)	TGI (SN12C renal)	TGI (SNB-75 CNS)	GI50 (UACC-62 melanoma)	TGI (UACC-62 melanoma)	TGI (OVCAR-3 ovarian)	GI50 (SNB-75 CNS)
COC(=O)/C=C/c1cc(O)c2c(c1)C(C(=O)OC)C(c1ccc(O)c(O)c1)O2 (centres undefined)	0.626 µM	> 56.3 µM	4.95 µM and 1.11 µM	61.9 µM and 23.7 µM	0.104 µM and 0.0405 µM	> 100 µM	1.46 µM and 0.363 µM	12.3 µM and 12.1 µM	< 0.0488 µM	0.526 µM and 0.0809 µM	> 54.9 µM and 12 µM	0.0472 µM	86.4 µM and > 100 µM	0.614 µM	> 100 µM	> 49.7 µM and 64.2 µM	0.0678 µM	4.56 µM and 27.9 µM	–	–
O=C(Nc1ccc(S(=O)(=O)Nc2nccs2)cc1)c1cccnc1Nc1cccc(Cl)c1	17.9 µM	39.9 µM	15.3 µM	39.8 µM	12.2 µM	25.2 µM	16 µM	32.6 µM	13.1 µM	18 µM	48.4 µM	14.4 µM	33.4 µM	12.5 µM	25.9 µM	51.3 µM	6.62 µM	20.3 µM	27.4 µM	9.43 µM
O=C(/C=C/c1ccco1)c1ccc(Nc2nc(Nc3ccc(F)cc3)nc(Nc3ccc(Cl)cc3)n2)cc1	> 34.3 µM	> 49.4 µM	22.3 µM	> 100 µM	16.5 µM	> 54.4 µM	9.29 µM	31.9 µM	18 µM	18.3 µM	57.3 µM	7.09 µM	45.9 µM	45.6 µM	> 100 µM	> 80.9 µM	> 37.4 µM	> 59.5 µM	56.8 µM	30.5 µM
COc1cc2oc(=O)cc(C)c2cc1[N+](=O)[O-]	–	49.5 µM	–	> 100 µM	–	32.3 µM	–	> 100 µM	–	–	40.7 µM	–	33.8 µM	–	37.2 µM	> 100 µM	–	34.6 µM	64.1 µM	–
O=C(Nc1ccc(Cl)c([N+](=O)[O-])c1)Nc1nc2ccccc2s1	10.3 µM	26.8 µM	3.37 µM	13 µM	3.57 µM	14.9 µM	2.93 µM	9.45 µM	3.27 µM	3.33 µM	17.7 µM	3.76 µM	11.4 µM	3.74 µM	19 µM	15.4 µM	4.05 µM	18 µM	10.6 µM	3.97 µM
CC(C)(C)[OH+][O-].[O-]c1ccc(Cl)cc1C=Nc1ccc(Cl)cc1[O-].[O]=[V]	3.73 µM	27.1 µM	17.1 µM	> 100 µM	21.4 µM	98.9 µM	18 µM	46.3 µM	13.5 µM	23 µM	> 100 µM	17.3 µM	36.6 µM	24.2 µM	> 100 µM	30.8 µM	10.7 µM	37.5 µM	40.5 µM	12.1 µM
O=C1/C(=C/c2cccc([N+](=O)[O-])c2)COc2ccc(O)c(O)c21	1.35 µM	2.85 µM	2.06 µM	6.37 µM	1.14 µM	2.7 µM	2.08 µM	4.97 µM	1.2 µM	2.35 µM	13.3 µM	1.28 µM	2.69 µM	1.16 µM	2.51 µM	5.72 µM	1.57 µM	2.98 µM	2.71 µM	1.28 µM
CN(C)/[N+]([O-])=N/Oc1cc(Nc2cccc(C(=O)O)c2)c([N+](=O)[O-])cc1[N+](=O)[O-]	> 100 µM	> 100 µM	> 100 µM	> 100 µM	34.5 µM	> 100 µM	> 100 µM	> 100 µM	5.45 µM	> 100 µM	> 100 µM	> 100 µM	> 100 µM	> 100 µM	> 100 µM	> 100 µM	50.1 µM	> 100 µM	22.7 µM	> 100 µM
COc1cccc(N2C(=O)c3c(c4[nH]c5ccccc5c4c4ccc(C(C)(C)C)cc34)C2=O)c1	–	> 100 µM	–	> 100 µM	–	> 100 µM	–	> 100 µM	–	–	> 100 µM	–	> 100 µM	–	> 100 µM	> 100 µM	–	> 100 µM	> 100 µM	–
COc1cc(/C=C(/C)[N+](=O)[O-])ccc1O	1.79 µM and 1.94 µM	3.26 µM and 3.51 µM	3.94 µM and 2.5 µM	14.6 µM and 7.07 µM	1.65 µM and 1.71 µM	3.12 µM and 3.29 µM	2.52 µM and 2.22 µM	7.15 µM and 6.05 µM	1.96 µM and 1.61 µM	2.86 µM and 2.73 µM	9.5 µM and 7.93 µM	1.72 µM and 1.8 µM	3.24 µM and 3.31 µM	2.2 µM and 2.43 µM	5.98 µM and 9.43 µM	15.1 µM and 8.45 µM	1.77 µM and 1.8 µM	3.7 µM and 3.71 µM	3.46 µM and 3.17 µM	3.64 µM and 1.91 µM
Oc1c(CN2CCC(N3CCOCC3)CC2)cc(Cc2cc(CN3CCC(N4CCOCC4)CC3)c(O)c3ncccc23)c2cccnc12	1.07 µM	17.7 µM	1.62 µM	12.5 µM	0.383 µM	48.7 µM	0.471 µM	16.6 µM	0.976 µM	1.57 µM	21.9 µM	3.06 µM	18.7 µM	0.67 µM	> 100 µM	38.2 µM	0.434 µM	5.29 µM	11.9 µM	2.57 µM
CCCCCCCCCCCCCS(=O)(=O)O	–	> 100 µM	–	> 100 µM	–	> 100 µM	–	> 100 µM	–	–	> 100 µM	–	> 100 µM	–	> 100 µM	> 100 µM	–	> 100 µM	> 100 µM	–
C[Si](C)(C)C#CCO[Si](C)(C)C	–	> 78.8 µM	–	> 100 µM	–	> 100 µM	–	> 100 µM	–	–	> 100 µM	–	> 100 µM	–	> 100 µM	> 100 µM	–	> 100 µM	> 100 µM	–
O=C1C2C(C(=O)N1O)N(Cc1ccccc1)C(=O)N2Cc1ccccc1 (centres undefined)	–	> 100 µM	–	> 100 µM	–	> 100 µM	–	> 100 µM	–	–	> 100 µM	–	> 100 µM	–	> 100 µM	> 100 µM	–	> 100 µM	> 100 µM	–
CC1=CC=NN2C(=O)[C@H](C)C2C1 (some centres undefined)	–	> 100 µM	–	> 100 µM	–	> 100 µM	–	> 100 µM	–	–	> 100 µM	–	> 100 µM	–	> 100 µM	> 100 µM	–	> 100 µM	> 100 µM	–
CCCN1C(=O)C/C(=C\C(C)=O)Nc2ccccc21	–	> 100 µM	–	> 100 µM	–	> 100 µM	–	> 100 µM	–	–	> 100 µM	–	> 100 µM	–	> 100 µM	> 100 µM	–	> 100 µM	> 100 µM	–
CCOC(=N)CC(=O)Nc1ccc(Cl)cc1	–	> 100 µM	–	> 100 µM	–	> 100 µM	–	> 100 µM	–	–	> 100 µM	–	> 100 µM	–	> 100 µM	> 100 µM	–	> 100 µM	> 100 µM	–
CC(C)C[C@H](NC(=O)[C@H](Cc1ccccc1)n1ccc(N2CCCCC2)cc1=O)B(O)O	0.825 µM	> 100 µM	2.39 µM	> 100 µM	0.343 µM	2.55 µM	3.18 µM	> 100 µM	0.327 µM	3.64 µM	> 100 µM	0.284 µM	0.882 µM	1.5 µM	11.1 µM	3.82 µM	0.458 µM	2.44 µM	1.21 µM	0.461 µM
Cc1ccc(C)c(NC(=O)C(=O)C(c2cnc3ccc([N+](=O)[O-])cc3n2)[N+](=O)[O-])c1 (centres undefined)	–	> 100 µM	–	> 100 µM	–	> 100 µM	–	> 100 µM	–	–	48.2 µM	–	> 100 µM	–	> 100 µM	> 100 µM	–	> 100 µM	> 100 µM	–
CCNC(=O)C[C@@H]1N=C(c2ccc(Cl)cc2)c2cc(OC)ccc2-n2c(C)nnc21	16.4 µM	> 100 µM	13.1 µM	> 100 µM	5.73 µM	> 100 µM	> 100 µM	> 100 µM	6.29 µM	8.9 µM	> 100 µM	8.9 µM	> 100 µM	15.5 µM	> 100 µM	1.6 µM	0.618 µM	> 100 µM	> 100 µM	0.034 µM
Cc1ccc(S(=O)(=O)N/N=C(\CCN2CCCC2)CC(c2ccccc2)c2c(O)c3ccccc3oc2=O)cc1 (centres undefined)	–	> 100 µM	–	> 100 µM	–	> 100 µM	–	> 100 µM	–	–	> 100 µM	–	> 100 µM	–	> 100 µM	> 100 µM	–	> 100 µM	> 100 µM	–
OCCN(CCO)N=Nc1ccc(-c2nc3ccccc3[nH]2)cc1	25.2 µM	56.2 µM	44.9 µM	> 100 µM	25.3 µM	64.3 µM	13.7 µM	29.5 µM	11 µM	24.7 µM	53.9 µM	27.9 µM	65 µM	85.5 µM	> 100 µM	> 100 µM	35.2 µM	> 100 µM	25.7 µM	28.9 µM
O=C1c2ccccc2-c2c1c1ccccc1c(=O)n2CCCNCCCn1c2c(c3ccccc3c1=O)C(=O)c1ccccc1-2	8.53 µM	29.8 µM	2.01 µM	> 50 µM	1.75 µM	> 28.9 µM	2.31 µM	> 17.7 µM	5.42 µM	2.46 µM	> 26 µM	4.07 µM	> 29.1 µM	3.4 µM	14.9 µM	> 50 µM	7.52 µM	16.4 µM	16.5 µM	6.1 µM
Cc1ccc(Nc2nc(NCCO)c3ccccc3n2)cc1C	6.94 µM	20.1 µM	5.4 µM	22.7 µM	3.95 µM	14.5 µM	4.44 µM	16.7 µM	11 µM	5.44 µM	25.9 µM	3.14 µM	13.7 µM	10.3 µM	24.4 µM	20.9 µM	12.1 µM	25.3 µM	23 µM	8.14 µM
Cn1ncc(=S)[nH]c1=S	–	> 100 µM	–	> 100 µM	–	> 100 µM	–	> 100 µM	–	–	> 100 µM	–	> 100 µM	–	> 100 µM	> 100 µM	–	> 100 µM	> 100 µM	–
O=C(Nc1ccc(-c2nc3cc4ccccc4cc3[nH]2)cc1)c1cccc(Br)c1	5.48 µM	18 µM	2.83 µM	10.6 µM	3.89 µM	> 100 µM	3.36 µM	13 µM	3.64 µM	3.43 µM	18.9 µM	1.9 µM	8.28 µM	8.67 µM	34.9 µM	26.4 µM	15.8 µM	30.5 µM	10.3 µM	12.4 µM
O=[N+]([O-])c1ccc(N2CCN(Cc3ccccc3)CC2)c2c1no[n+]2[O-]	1.72 µM	3.18 µM	1.5 µM	3.19 µM	0.95 µM	2.38 µM	1.61 µM	3.52 µM	1.52 µM	1.59 µM	5.25 µM	1.31 µM	2.76 µM	1.63 µM	3.53 µM	2.26 µM	1.48 µM	3.4 µM	2.96 µM	0.954 µM
CN(C)CCCCN1CCc2c(n(C)c3ccccc23)C1=O	–	> 79.7 µM and 49.4 µM	–	> 93.5 µM	–	75.6 µM and 45.1 µM	54.6 µM and 24.2 µM	> 87.1 µM and 49.8 µM	–	–	> 100 µM	–	84.7 µM and > 90.5 µM	–	> 90.1 µM and 98 µM	71.3 µM and 60.8 µM	–	54.3 µM and 31.8 µM	> 100 µM	–
CC(=O)N(C)OC(=O)CC(=O)c1ccccc1	–	> 100 µM	–	> 100 µM	–	> 100 µM	–	> 100 µM	–	–	> 100 µM	–	> 100 µM	–	> 100 µM	> 100 µM	–	> 100 µM	> 100 µM	–
CC(C)(C)[Si](C)(C)OCC1CCC(n2cnc3c(NC(=O)c4ccccc4)ncnc32)O1 (centres undefined)	–	31.3 µM	–	39.9 µM	–	33.5 µM	–	32 µM	–	–	60.2 µM	–	37.8 µM	–	34 µM	25.6 µM	–	29.7 µM	28 µM	–
